In US11085056B2, “Transfection complexes and methods of using the same” (MOLECULAR TRANSFER, INC., priority 2015, dated 2021):
Values joined by “and” are separate entries in the source; they are usually repeats but may differ in a detail not shown here. Equal values may be shown once.

How the values were obtained:
HeLa Cells [1] = assay: Transfection of HeLa cells with DOTMA/DOPE/peptide and eGFP plasmid, fluorescent plate reader; format: cell-based; settings: DOTMA/DOPE 1:1 plus peptide with RRRRRRRRRRRR (SEQ ID NO: 109) at n terminus; EF1Alpha eGFP plasmid; 0.01 mL complex; 42 hours
Description: (§1) Cells were plated to so that on the day of transfection the cells were 60-70% confluent in 96 well tissue culture plates. A DOMTA/DOPE Lipid solution (1:1 molar ratio) at 2 mg/mL in water were mixed with an equal volume of surface ligand peptides that had the nucleic acid binding moiety RRRRRRRRRRRR (SEQ ID NO: 109) covalently linked to the n terminus of each peptide during peptide synthesis. Peptides were at 2 mg/mL in water. The DOTMA/DOPE and the surface ligand peptide solution the transfection reagent was diluted 1 to 1 (v/v) in water. DOMTA/DOPE/PEPTIDE solutions were added to 0.1 mL of a plasmid DNA solution (EF1Alpha eGFP plasmid) at 5 μg/mL in OptiMEM. Lipofectamine 2000 was obtained from Life Technologies.
(§2) All solutions were at room temperature. A volume of 0.2 mL of a 5 μg/mL solution of DNA was aliquoted into each well of a non-tissue cultured treated plate. 4.0 μL of transfection reagents were added to DNA solutions respectively. The transfection reagent and DNA solution was mixed by pipetting up and down twice. Transfection complexes were formed for 10 minutes. After 10 minutes, 0.01 or 0.02 mL of the transfection complex was added to cells. HuVEC, HeLa, human adult keratinocytes, human primary adult fibroblast, and rat cortical neurons all respectively received 0.01 mL of the tramsfectopm complex. Human skeletal muscle cells, mouse C2C12 cells, Jurkat, and THP-1 cells received 0.02 mL of the transfection complex. Cells were incubated for 42 hours at 37° C. at 5% CO2. Plates were read on a fluorescent plate reader. Cells were also examined visually under a microscope to assess the extent of transfection (in terms of the percent of cells transfected) with a fluorescent microscope. Other modes of analysis, for example quantification with B-galactosidase or luciferase reports plasmids can also be used. […] Surface ligand that caused increase expression of GFP over the lipid DOTMA with no surface ligand were considered to enhance transfection or had higher % cells transfected were considered to enhance transfection. Peptides that gave greater than 2 fold enhancement are noted in bold and could be further optimized by adding different transfection enhancers or could be used with different cationic lipids or polymers.

NL-1 iPS Cells = assay: Transfection of NL-1 iPS cells with DOTMA/DOPE/peptide and eGFP plasmid, fluorescent plate reader; format: cell-based; settings: DOTMA/DOPE 1:1 plus peptide with RRRRRRRRRRRR (SEQ ID NO: 109) at n terminus; EF1Alpha eGFP plasmid; 42 hours
Description: as §1, §2

HuVec Cells = assay: Transfection of HuVec cells with DOTMA/DOPE/peptide and eGFP plasmid, fluorescent plate reader; format: cell-based; settings: DOTMA/DOPE 1:1 plus peptide with RRRRRRRRRRRR (SEQ ID NO: 109) at n terminus; EF1Alpha eGFP plasmid; 0.01 mL complex; 42 hours
Description: as §1, §2

C2C12 Cells = assay: Transfection of C2C12 cells with DOTMA/DOPE/peptide and eGFP plasmid, fluorescent plate reader; format: cell-based, mouse; settings: DOTMA/DOPE 1:1 plus peptide with RRRRRRRRRRRR (SEQ ID NO: 109) at n terminus; EF1Alpha eGFP plasmid; 0.02 mL complex; 42 hours
Description: as §1, §2

Human Fibroblast Cells = assay: Transfection of human fibroblast cells with DOTMA/DOPE/peptide and eGFP plasmid, fluorescent plate reader; format: cell-based; settings: DOTMA/DOPE 1:1 plus peptide with RRRRRRRRRRRR (SEQ ID NO: 109) at n terminus; EF1Alpha eGFP plasmid; 0.01 mL complex; 42 hours
Description: as §1, §2

Jurkat Cells = assay: Transfection of Jurkat cells with DOTMA/DOPE/peptide and eGFP plasmid, fluorescent plate reader; format: cell-based; settings: DOTMA/DOPE 1:1 plus peptide with RRRRRRRRRRRR (SEQ ID NO: 109) at n terminus; EF1Alpha eGFP plasmid; 0.02 mL complex; 42 hours
Description: as §1, §2

some examined cell types = assay: Transfection expression and % cells transfected over the no peptide control; format: cell-based; settings: on some examined cell types
Description: as §1, §2

HeLa Cells [2] = assay: Transfection of HeLa cells with DOTMA/SEQ ID NO: 72/peptide compared with Lipofectamine 2000; format: cell-based; settings: fusogenic peptide 0.1 mg/mL
Description: as §1, §2
The fusogenic peptide was added to the DOMTA/peptide formulation to achieve a final concentration of 0.1 mg/mL to see if transfection reagents were further enhanced by the addition of a fusogenic peptide and could provide higher transfection efficiency into HeLa cells and expression than the commercially available Lipofectamine 2000.

[3] = 0.1 μL of DOTMA/SEQ ID NO: 72/Peptide in well of a 96 well plate
[4] = 0.2 μL of DOTMA/SEQ ID NO: 72/Peptide in well of a 96 well plate
[5] = 0.3 μL of DOTMA/SEQ ID NO: 72/Peptide in well of a 96 well plate
[6] = 0.4 μL of DOTMA/SEQ ID NO: 72/Peptide in well of a 96 well plate

Substance | RF (Relative Fluorescence) of Transfection of HeLa Cells (HeLa Cells [1]) | RF (Relative Fluorescence) of Transfection of NL-1 iPS Cells (NL-1 iPS Cells) | RF (Relative Fluorescence) of Transfection of HuVec Cells (HuVec Cells) | RF (Relative Fluorescence) of Transfection of C2C12 Cells (C2C12 Cells) | RF (Relative Fluorescence) of Transfection of Human Fibroblast Cells (Human Fibroblast Cells) | RF (Relative Fluorescence) of Transfection of Jurkat Cells (Jurkat Cells) | transfection expression and the % cells transfected over the no peptide control (some examined cell types) | RF (Relative Fluorescence), DOTMA/SEQ ID NO: 72/Peptide, HeLa Cells (HeLa Cells [2]; [3]) | RF (Relative Fluorescence), DOTMA/SEQ ID NO: 72/Peptide, HeLa Cells (HeLa Cells [2]; [4]) | RF (Relative Fluorescence), DOTMA/SEQ ID NO: 72/Peptide, HeLa Cells (HeLa Cells [2]; [5]) | RF (Relative Fluorescence), DOTMA/SEQ ID NO: 72/Peptide, HeLa Cells (HeLa Cells [2]; [6])
107 (RRRRRRRR; Peptidic transfection agent) [compound 107] | 75 | 1441 |  |  |  |  |  |  |  |  | 
205 (AASIKVAVSADR; Peptidic transfection agent) [compound 205] | 26368 | 13140 | 8309 | 2102 | 8550 | 2298 | increased |  |  |  | 
216 (YRVRVTPKEKTGPMKE; Peptidic transfection agent) [compound 216] | 6181 | 19626 | 14693 | 1001 | 3117 | 3570 | increased |  |  |  | 
220 (ATETTITIS; Peptidic transfection agent) [compound 220] | 9398 | 15892 | 8737 | 1470 | 4516 | 6428 | increased |  |  |  | 
224 (KPDVRSYTITG; Peptidic transfection agent) [compound 224] | 5559 | 25209 | 15945 | 1469 | 5995 | 13170 |  |  |  |  | 
226 (ANGQTPIQRYIK; Peptidic transfection agent) [compound 226] | 7340 | 24920 | 20864 | 1664 | 3431 | 12976 | increased |  |  |  | 
229 (PPFLMLLKGSTR; Peptidic transfection agent) [compound 229] | 8816 | 13491 | 5452 | 1164 | 6811 | 8079 | increased |  |  |  | 
234 (YEKPGSPPREVVPRPRPGV; Peptidic transfection agent) [compound 234] | 3867 | 14410 | 13956 | 681 | 4145 | 5441 |  |  |  |  | 
235 (KARSFNVNQLLQD; Peptidic transfection agent) [compound 235] |  |  | 26940 |  |  |  |  |  |  |  | 
236 (KNNQKSEPLIGRKKT; Peptidic transfection agent) [compound 236] | 7202 and 5042 | 43542 and 22256 | 14418 |  | 3630 and 3000 |  | increased | 5993 | 8846 | 8492 | 7316
335 (TVFSVDQDNMLE; Peptidic transfection agent) [compound 335] | 26954 | 14424 | 6350 | 4689 | 8534 | 4567 |  | 12866 | 12458 | 11547 | 9753
349 (RNIAEIIKDI; Peptidic transfection agent) [compound 349] | 4433 | 33103 | 22907 |  | 8810 | 23167 | increased |  |  |  | 
363 (LAGSCLARFSTM; Peptidic transfection agent) [compound 363] | 2590 | 4189 | 1383 | 1080 | 3008 | 2432 |  |  |  |  | 
371 (GPAGKDGEAGAQG; Peptidic transfection agent) [compound 371] | 5180 | 17587 | 10669 | 983 | 4584 | 6093 |  |  |  |  | 
383 (TAG; Peptidic transfection agent) [compound 383] | 8012 | 21983 | 20267 | 1876 | 5896 | 14910 |  |  |  |  | 
393 (LGTIPG; Peptidic transfection agent) [compound 393] |  |  |  |  |  |  | increased |  |  |  | 
501 (DLGTAGSCLRRFSTM; Peptidic transfection agent) [compound 501] |  |  |  | 5913 | 9473 | 12350 | increased | 23571 | 23993 | 20410 | 14749
502 (RNIAEIIKDI; Peptidic transfection agent) [compound 502] |  |  |  | 2589 |  |  |  |  |  |  | 
